# Experimental data: patent US20100137146A1, “Method of Screening Antibacterial Drug Compounds” (Temasek Lifesciences Laboratory, priority 2006, published 2010)
# Legend:
# [1] = molecular target: T1, MreB (Escherichia coli, UniProt P0A9X4); type: cell-based, E. coli
# T1 construct: the protein is expressed as a fusion of the full-length bacterial protein with a reporter; expressed in transfected cells; host or cells: Schizosaccharomyces pombe (pREP42-gfp-mreB, nmt42 promoter)
# Method: GFP-MreB and FtsZ-GFP were expressed in S. pombe by growing the transformed cultures in the absence of thiamine for 16-20 hours. In the case of fission-yeast temperature-sensitive mutants carrying the GFP-MreB plasmid, cultures were grown in the absence of thiamine for 25-30 hours at 24° C. to allow sufficient expression of the protein. However, prior to the formation of MreB-polymers, the cultures were shifted to restrictive temperatures for a period of 4 hours. The cells were subsequently fixed and stained for actin or tubulin.
# The cells were-either fixed with formaldehyde 0.7%) or observed live under a fluorescence microscope. Inhibition of MreB polymerization was achieved by the addition of A22 at a final concentration of 50 μg/ml after 14-16 hours of growth in the absence of thiamine. Cultures were allowed to grow further for a period of 6-8 hours before washing of A22 for time-lapse microscopy. The cells were mounted onto agarose slides, and images were acquired at fixed time intervals. Immunofluorescence was carried out as described in Balasubramanian et al., Meth. Enzymol. 283:494-495, 1997.
# Next, whether MreB polymerization in fission yeast was mechanistically related to its polymerization in bacteria was assessed. Studies in bacteria have shown that the small molecule A22 affects the polymerization and/or maintenance of MreB polymers. To test whether A22 prevents polymerization of MreB in fission yeast, cells were treated with A22 prior to the induction of MreB expression. Cells expressing GFP-MreB were treated with the MreB-inhibitor A22 (0 minute time point) at a concentration of 50 μg/ml. The drug then was washed out, and cells were imaged by time-lapse microscopy.
# To this end, cells containing preformed MreB bundles were treated with A22.
# [2] = molecular target: GFP-MreB D165E (Escherichia coli, UniProt P0A9X4, D165E); settings: GFP-MreB D165E in wild type fission yeast
# Chain of GFP-MreB D165E (P0A9X4 whole entry D165E): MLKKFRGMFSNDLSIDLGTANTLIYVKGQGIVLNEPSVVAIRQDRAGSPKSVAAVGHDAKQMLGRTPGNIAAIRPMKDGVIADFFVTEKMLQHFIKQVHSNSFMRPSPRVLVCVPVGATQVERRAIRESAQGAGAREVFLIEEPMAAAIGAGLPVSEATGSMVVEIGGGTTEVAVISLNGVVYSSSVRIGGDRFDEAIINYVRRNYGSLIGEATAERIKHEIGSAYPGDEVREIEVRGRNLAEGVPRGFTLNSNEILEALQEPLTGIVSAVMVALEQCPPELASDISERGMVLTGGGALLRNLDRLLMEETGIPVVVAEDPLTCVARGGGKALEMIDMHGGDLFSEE
# Source text: (§1) The MreB ATPase mutants were generated by overlap PCR with the following mutagenic primers: MOH2516 and MOH2517 for E143A and MOH2512 and MOH2513 for D165E along with the above-mentioned end primers (MOH2413 and MOH2414). The GFP-MreB mutants were all cloned into pREP42. All plasmids and mutations were verified by sequencing.
# (§2) In bacteria, mutations in the vicinity of the ATP binding pocket of MreB confer A22 resistance. […] Plasmids expressing GFP-MreB E143A (see Garner et al., Science 306:1021-1025, 2004) or D165E (see Kruse et al., EMBO J. 22:5283-5292, 2003) were introduced into wild type fission yeast cells. Cultures were grown in the absence of thiamine to induce the expression of GFP fusion proteins. […] See FIGS. 15A (E143A) and 15B (D165E).
# [3] = molecular target: GFP-MreB E143A (Escherichia coli, UniProt P0A9X4, E143A); settings: GFP-MreB E143A in wild type fission yeast
# Chain of GFP-MreB E143A (P0A9X4 whole entry E143A): as the sequence (P0A9X4 whole entry D165E) above, with E143A, E165D counted along it
# Source text: as §1, §2
# [4] = molecular target: T2, F-actin (Schizosaccharomyces pombe, UniProt P10989); test: F-actin staining (rhodamine-conjugated phalloidin) in S. pombe cells expressing GFP-MreB; type: cell-based; settings: LatA 20 μg/ml for 10 minutes
# T2 construct: endogenous in cells; host or cells: Schizosaccharomyces pombe cells expressing GFP-MreB
# Method: S. pombe cells expressing GFP-MreB were fixed with methanol and incubated with tubulin (1:100) antibodies. Mouse secondary antibodies conjugated to Alexa-594™ were used at 1:400 for visualizing tubulin. For actin staining, cultures were fixed with formaldehyde (3.7%) and permeablized by using 1% Triton-X 100 in PBS. Rhodamine-conjugated phalloidin was used to visualize S. pombe actin. Latrunculin A (LatA) was added at a final concentration of 20 μg/ml for 10 minutes, and methyl 1-(butylcarbanoyl)-2-benzimidazolecarbamate (MBC) was added at a 25 μg/ml for 20 minutes. For methods, see Karagiannis et al., Mol. Biol. Cell 16:358-371, 2005 and Sawin et al., J. Cell Sci. 117:689-700, 2004, the disclosures of which are hereby incorporated by reference. For time-lapse imaging, LatA and MBC were included simultaneously in the agarose pads. […] Pictures were obtained with a CCD camera (CoolSnapHQ™, Photometrics™). The images were acquired and processed with Meta-morph™.
# Studies therefore were performed to determine whether MreB assembly and maintenance was dependent on F-actin and microtubules. Cells were grown in the absence of thiamine to allow expression GFP-MreB. Cultures were then treated with LatA (20 μg/ml) for 10 minutes or methyl 1-butylcarbamoyl-2-benzimidazolecarbamate MBC (25 μg/ml) for 20 minutes to disrupt F-actin and microtubule, respectively. […]
# T1 sequence (P0A9X4 whole entry, the tested form may be a part): as the sequence (P0A9X4 whole entry D165E) above, with E165D counted along it
Compound,"MreB polymerization in fission yeast ([1]; A22 50 μg/ml, S. pombe cells expressing GFP-MreB, 0 minute time point before washout)","Reversibility of the effect on MreB polymerization ([1]; after removal of A22 (50 μg/ml), MreB filaments re-established at 20 minutes)",Severing and/or disassembly of preformed MreB bundles ([1]; cells with prominent GFP-MreB bundles cultured 1 hour with A22),"Structures assembled by MreB ATPase mutant, sensitivity to A22 [2]","Structures assembled by MreB ATPase mutant, sensitivity to A22 [3]",Disruption of F-actin [4],Maintenance of MreB bundles ([1]; LatA 20 μg/ml for 10 minutes),MreB nucleation and assembly after A22 washout ([1]; simultaneous presence of LatA (20 μg/ml) and MBC (25 μg/ml) in agarose pads),"Effect on average growth rate of MreB bundles ([1]; simultaneous presence of LatA and MBC, rate without them 0.46±0.03 μm/min (n=44))"
N=C(N)SCc1ccc(Cl)c(Cl)c1 [A22],did not exhibit MreB polymers,reversible,pre-existing bundles were unaffected,assembled similar structures both in the presence and absence of A22,assembled similar structures both in the presence and absence of A22,–,–,–,–
"C/C1=C/C(=O)O[C@@H]2C[C@@H](CC[C@H](C)/C=C\C=C\CC1)O[C@@](O)([C@@H]1CSC(=O)N1)C2 [LatA, Latrunculin A]",–,–,–,–,–,completely disassembled,remained unperturbed,MreB nucleated and assembled into polymers,did not vary significantly
